Experimental findings from US11186588B2 (AYUMI PHARMACEUTICAL CORPORATION, priority 2017, dated 2021) are described below.

The term inhibition denotes the change of the read-out against control, counted positive when it falls. The term IC50 denotes the point on the concentration scale where inhibition reaches its midpoint.

Each structure is given as a SMILES string.

The target of assay [1] is Recombinant BRD4 (44-168) protein (Homo sapiens (Human), UniProt O60885). The assay can be described thus: BRD4-H4KAc4 binding assay (amplified luminescence proximity homogeneous assay, AlphaScreen). The following applies: 10 uM. How it is done:
In order to evaluate BRD4 inhibitory activity of the present compounds, BRD4-H4KAc4 binding assay was carried out by an amplified luminescence proximity homogeneous assay. The specific method is described below.
H4KAc4 peptide (available from Toray Research Center, Inc., sequence SGRGK(Ac)GGK(Ac)GLGK(Ac)GGAK(Ac)RHR-K(Biotin)-NH2) was dissolved in 1×Assay buffer to prepare 1 mM H4KAc4 peptide stock solution.
N-terminal His tag/C-terminal FLAG tag-fused type Recombinant BRD4 (44-168) protein (available from Active Motif, Cat No. 31380) was diluted with 1×Assay buffer to 1,250-fold to prepare 250 nM BRD4 solution.
1% DMSO solution (control) and 2 μL of each compound solution in each concentration were added to each well of AlphaPlate-384 (from PerkinElmer, Cat No. 6008350). Next, 2 μL of 250 nM BRD4 solution was added to each well of AlphaPlate-384. Further, 2 μL of 250 nM H4KAc4 peptide solution was added to each well of AlphaPlate-384. After addition of the 250 nM H4KAc4 peptide solution, the mixture was allowed to stand at room temperature under light shielding for 60 minutes, and 4 μL of AlphaScreen beads were added to each well of AlphaPlate-384. After addition of the AlphaScreen beads, the mixture was allowed to stand at room temperature under light shielding for 60 minutes, emission at 520-620 nm upon excitation at 680 nm was detected by EnVision multilabel counter (from PerkinElmer), and binding of BRD4 and H4KAc4 was detected. Incidentally, the evaluation of each compound was carried out in duplicate (2 well per 1 compound).
The BRD4 inhibition rate (%) was calculated by the following equation using Microsoft EXCEL 2010. BRD4 inhibition rate (%)=100−{(luminescence intensity average value of each compound added well)−(average value of luminescence intensity of blank well))/(average value of luminescence intensity of control well)−(average value of luminescence intensity of blank well)}×100

A further assay relates to NF-κB. The assay can be described thus: NF-κB reporter gene assay (TNF-α stimulated A549/NF-κB-luc cells). The format is cell-based. As to conditions: Homo sapiens, TNF-α stimulation. How it is done: In order to evaluate NF-κB inhibitory activity of the present compounds, NF-κB reporter gene assay was carried out. The specific method is described below.
Gene recombinant human TNF-α (available from R&D systems, Cat No. 210-TA) was dissolved in D-PBS(−) (available from Wako Pure Chemical Industries, Ltd., Cat No. 293-72601) to prepare 100 μg/mL of TNF-α solution stock solution. 100 μg/mL of the TNF-α solution stock solution was diluted with the culture medium to prepare 10 ng/mL of TNF-α solution.
A549/NF-κB-luc cells (available from Panomics, Cat No. LR0051) were prepared at 375,000 cells/mL in the culture medium. The 375,000 cells/mL A549/NF-κB-luc cell suspension was seeded at 80 μL each on a white 96-well plate (available from Greiner, Cat No. 655073). One hour after seeding the cells, 10 μL of 2% DMSO solution (control) and each compound solution in each concentration were added to each well of the 96-well plate. One hour after the addition of each compound solution, 10 ng/mL of the TNF-α solution (10 μL) was added to each well of the 96-well plate. Three hours after the addition of 10 ng/mL of the TNF-α solution, 100 μL of Steady-Glo reagent (available from Promega, Cat No. E2510) was added to each well of the 96-well plate. After 30 to 90 minutes of the addition of the Steady-Glo reagent, the luminescence intensity of each well was detected by EnVision multilabel counter (available from PerkinElmer).
NF-κB inhibition rate (%) was calculated by the following equation using Microsoft EXCEL 2010. NF-κB inhibition rate (%)=100−{(luminescence intensity average value of each compound added well)−(average value of luminescence intensity of blank well))/(average value of luminescence intensity of control well)−(average value of luminescence intensity of blank well)}×100 In addition, IC50 values were calculated from the calculated NF-κB inhibition rate (%) using curve fitting software XLfit (available from IDBS).
For orientation: A reporter such as luciferase makes a cellular process visible.

On to `Cc1sc2c(c1C)C(c1ccc(Cl)cc1)=NN(Cc1ccccc1)c1nnc(C)n1-2` [Example 3, 6-benzyl-4-(4-chlorophenyl)-2,3,9-trimethyl-6H-thieno[2,3-e][1,2,4]triazolo[3,4-c][1,2,4]triazepine], for which the inhibition at 10 µM in assay [1] stood at 100%. Further, the IC50 with NF-κB is 51.9 nM. As to `COc1cccc(CN2N=C(c3ccc(Cl)cc3)c3c(sc(C)c3C)-n3c(C)nnc32)c1` [Example 6, 4-(4-chlorophenyl)-6-(3-methoxybenzyl)-2,3,9-trimethyl-6H-thieno[2,3-e][1,2,4]triazolo[3,4-c][1,2,4]triazepine], the inhibition at 10 µM in assay [1] was 100%. This compound also gave an IC50 with NF-κB of 86.4 nM. Regarding `Cc1sc2c(c1C)C(c1ccc(Cl)cc1)=NN(Cc1ccc(C(C)(C)C)cc1)c1nnc(C)n1-2` [Example 7, 6-(4-(tert-butyl)benzyl)-4-(4-chlorophenyl)-2,3,9-trimethyl-6H-thieno[2,3-e][1,2,4]triazolo[3,4-c][1,2,4]triazepine], the inhibition at 10 µM in assay [1] was 99.8%. Besides, the midpoint of inhibition in the assay with NF-κB, the IC50, lay at 735 nM. Take `Cc1sc2c(c1C)C(c1ccc(Cl)cc1)=NN(Cc1ccccc1F)c1nnc(C)n1-2` [Example 8, 4-(4-chlorophenyl)-6-(2-fluorobenzyl)-2,3,9-trimethyl-6H-thieno[2,3-e][1,2,4]triazolo[3,4-c][1,2,4]triazepine]: in assay [1], the inhibition at 10 µM worked out at 100%. In the assay on NF-κB, this compound showed a 50% inhibitory concentration (IC50) of 104 nM. `Cc1sc2c(c1C)C(c1ccc(Cl)cc1)=NN(Cc1cccc(F)c1)c1nnc(C)n1-2` [Example 9, 4-(4-chlorophenyl)-6-(3-fluorobenzyl)-2,3,9-trimethyl-6H-thieno[2,3-e][1,2,4]triazolo[3,4-c][1,2,4]triazepine]: the inhibition at 10 µM in assay [1] was 100%. Further, in the assay on NF-κB, the midpoint of inhibition, the IC50, lay at 17.6 nM. The like results for `Cc1sc2c(c1C)C(c1ccc(Cl)cc1)=NN(Cc1ccccc1Cl)c1nnc(C)n1-2` [Example 10, 6-(2-chlorobenzyl)-4-(4-chlorophenyl)-2,3,9-trimethyl-6H-thieno[2,3-e][1,2,4]triazolo[3,4-c][1,2,4]triazepine] were, in that order, 100% and 192 nM. With `Cc1ccccc1CN1N=C(c2ccc(Cl)cc2)c2c(sc(C)c2C)-n2c(C)nnc21` [Example 11, 4-(4-chlorophenyl)-2,3,9-trimethyl-6-(2-methylbenzyl)-6H-thieno[2,3-e][1,2,4]triazolo[3,4-c][1,2,4]triazepine], in assay [1], the inhibition at 10 µM was 100%. The compound further returned a half-maximal inhibitory concentration (IC50) in the assay with NF-κB of 291 nM. `Cc1cccc(CN2N=C(c3ccc(Cl)cc3)c3c(sc(C)c3C)-n3c(C)nnc32)c1` [Example 12, 4-(4-chlorophenyl)-2,3,9-trimethyl-6-(3-methylbenzyl)-6H-thieno[2,3-e][1,2,4]triazolo[3,4-c][1,2,4]triazepine]: the inhibition at 10 µM in assay [1] worked out at 100%. The same compound came in with an IC50 in the assay with NF-κB of 32.1 nM. As for `Cc1ccc(CN2N=C(c3ccc(Cl)cc3)c3c(sc(C)c3C)-n3c(C)nnc32)cc1` [Example 13, 4-(4-chlorophenyl)-2,3,9-trimethyl-6-(4-methylbenzyl)-6H-thieno[2,3-e][1,2,4]triazolo[3,4-c][1,2,4]triazepine], the inhibition at 10 µM in assay [1] stood at 100%. Further, the concentration for half-maximal inhibition (IC50) in the assay on NF-κB is 233 nM. The corresponding values for `Cc1sc2c(c1C)C(c1ccc(Cl)cc1)=NN(Cc1ccc(C(F)(F)F)cc1)c1nnc(C)n1-2` [Example 14, 4-(4-chlorophenyl)-2,3,9-trimethyl-6-(4-(trifluoromethyl)benzyl)-6H-thieno[2,3-e][1,2,4]triazolo[3,4-c][1,2,4]triazepine] are 100% and 276 nM. Regarding `Cc1sc2c(c1C)C(c1ccc(Cl)cc1)=NN(Cc1cccc(Cl)c1)c1nnc(C)n1-2` [Example 16, 6-(3-chlorobenzyl)-4-(4-chlorophenyl)-2,3,9-trimethyl-6H-thieno[2,3-e][1,2,4]triazolo[3,4-c][1,2,4]triazepine], the inhibition at 10 µM in assay [1] was determined as 100%. In the assay with NF-κB, the IC50 is 77.5 nM.

`Cc1sc2c(c1C)C(c1ccc(Cl)cc1)=NN(Cc1cccc(C(F)(F)F)c1)c1nnc(C)n1-2` [Example 18, 4-(4-chlorophenyl)-2,3,9-trimethyl-6-(3-(trifluoromethyl)benzyl)-6H-thieno[2,3-e][1,2,4]triazolo[3,4-c][1,2,4]triazepine]: the inhibition at 10 µM in assay [1] is 100%. In the assay on NF-κB, the IC50 turned out to be 144 nM. Take `Cc1sc2c(c1C)C(c1ccc(Cl)cc1)=NN(CCc1ccccc1)c1nnc(C)n1-2` [Example 19, 4-(4-chlorophenyl)-2,3,9-trimethyl-6-phenethyl-6H-thieno[2,3-e][1,2,4]triazolo[3,4-c][1,2,4]triazepine]: the inhibition at 10 µM in assay [1] stood at 96.6%. For the same compound, in the assay with NF-κB, the concentration for half-maximal inhibition (IC50) came to 1320 nM. The corresponding values for `Cc1sc2c(c1C)C(c1ccc(Cl)cc1)=NN(Cc1cccc(F)n1)c1nnc(C)n1-2` [Example 21, 4-(4-chlorophenyl)-6-((6-fluoropyridin-2-yl)methyl)-2,3,9-trimethyl-6H-thieno[2,3-e][1,2,4]triazolo[3,4-c][1,2,4]triazepine] are 100% and 30.3 nM.

Turning to `Cc1sc2c(c1C)C(c1ccc(Cl)cc1)=NN(Cc1ncccc1F)c1nnc(C)n1-2` [Example 23, 4-(4-chlorophenyl)-6-((3-fluoropyridin-2-yl)methyl)-2,3,9-trimethyl-6H-thieno[2,3-e][1,2,4]triazolo[3,4-c][1,2,4]triazepine], the inhibition at 10 µM in assay [1] is 100%. The same compound registered a half-maximal inhibitory concentration (IC50) with NF-κB of 158 nM.

Consider `CC(=O)Nc1ccc(C2=NN(Cc3cncc(O)c3)c3nnc(C)n3-c3sc(C)c(C)c32)cc1` [Example 99, N-(4-(6-((5-hydroxypyridin-3-yl)methyl)-2,3,9-trimethyl-6H-thieno[2,3-e][1,2,4]triazolo[3,4-c][1,2,4]triazepin-4-yl)phenyl)acetamide], for which the midpoint of inhibition in the assay with NF-κB, the IC50, lay at 1640 nM. The same measure, in the same setting: in the case of `Cc1sc2c(c1C)C(c1ccc(N)cc1)=NN(Cc1cncc(O)c1)c1nnc(C)n1-2` [Example 103, 5-((4-(4-aminophenyl)-2,3,9-trimethyl-6H-thieno[2,3-e][1,2,4]triazolo[3,4-c][1,2,4]triazepin-6-yl)methyl)pyridin-3-ol] it was 289 nM; in that of `Cc1sc2c(c1C)C(c1ccc(N)cc1)=NN(Cc1ccc(O)nc1)c1nnc(C)n1-2` [Example 104], 3940 nM; in that of `Cc1sc2c(c1C)C(c1ccc(N)cc1)=NN(Cc1cccnc1)c1nnc(CO)n1-2` [Example 105, (4-(4-aminophenyl)-2,3-dimethyl-6-(pyridin-3-ylmethyl)-6H-thieno[2,3-e][1,2,4]triazolo[3,4-c][1,2,4]triazepin-9-yl)methanol], 4830 nM. On the same count and under the same terms, in the case of `Cc1c(CO)sc2c1C(c1ccc(N)cc1)=NN(Cc1cccnc1)c1nnc(C)n1-2` [Example 106, (4-(4-aminophenyl)-3,9-dimethyl-6-(pyridin-3-ylmethyl)-6H-thieno[2,3-e][1,2,4]triazolo[3,4-c][1,2,4]triazepin-2-yl)methanol] it was 1840 nM; in that of `Cc1sc2c(c1CO)C(c1ccc(N)cc1)=NN(Cc1cccnc1)c1nnc(C)n1-2` [Example 107, (4-(4-aminophenyl)-2,9-dimethyl-6-(pyridin-3-ylmethyl)-6H-thieno[2,3-e][1,2,4]triazolo[3,4-c][1,2,4]triazepin-3-yl)methanol], 2320 nM; in that of `Cc1nnc2n1-c1scc(CCO)c1C(c1ccc(N)cc1)=NN2Cc1cccnc1` [Example 108, 2-(4-(4-aminophenyl)-9-methyl-6-(pyridin-3-ylmethyl)-6H-thieno[2,3-e][1,2,4]triazolo[3,4-c][1,2,4]triazepin-3-yl)ethane-1-ol], 4020 nM.
